This is an account of results in patent US20170129864A1, “NEW SIGMA-RECEPTORS LIGANDS WITH ANTI-APOPTOTIC AND/OR PRO-APOPTOTIC PROPERTIES, OVER CELLULAR BIOCHEMICAL MECHANISMS WITH NEUROPROTECTIVE, ANTI-CANCER, ANTI-METASTATIC AND ANTI-(CHRONIC) INFLAMMATORY ACTION” (Anavex Life Sciences Corp., priority 2007, published 2017).

Data set [1] has as its system Aβ25-35 induced neutotoxicity and oxidative stress. Description: Aβ25-35 induced neurotoxicity and oxidative stress. It counts as in vivo. The conditions noted are these: 0.03-1 mg/kg, i.p.
The target of data set [2] is T1, σ-2 receptors (Homo sapiens, UniProt Q5BJF2). Description: affinity for σ-2 receptors. The data set is classed as binding.
Data set [3] concerns the target σ-1 receptors (Homo sapiens, UniProt Q99720). Briefly: agonistic or antagonistic action on σ-1 receptors.
Data set [4] deals with anoxia that is caused by pentylenetetrazole (PTZ). Briefly: protection against pentylenetetrazole (PTZ) induced anoxia and tonic crises. The data set is classed as in vivo, mice.
For data set [5], the system named is mice. Description: forced swimming test. It counts as in vivo. More on the design: dose or concentration left out as unconfirmed. The conditions noted are these: forced swimming test in mice.
Data set [6] deals with cancer cells. Briefly: cytotoxic action on cancer cells via apoptosis. The data set is classed as cell-based. The settings on record: depending on the cell line used.
In data set [7] the test system is scopolamine and dizocilpine (MK-801) induced amnesia or amyloid peptide β25-35 (Aβ25-35). Briefly: anti-amnesic action against scopolamine, dizocilpine (MK-801) or Aβ25-35 induced amnesia. The data set is classed as in vivo. The settings on record: per os (po), in mice.
For data set [8], the target named is T1, σ-2 receptors. Description: agonistic action for σ-2.

T1 sequence (Q5BJF2 whole entry): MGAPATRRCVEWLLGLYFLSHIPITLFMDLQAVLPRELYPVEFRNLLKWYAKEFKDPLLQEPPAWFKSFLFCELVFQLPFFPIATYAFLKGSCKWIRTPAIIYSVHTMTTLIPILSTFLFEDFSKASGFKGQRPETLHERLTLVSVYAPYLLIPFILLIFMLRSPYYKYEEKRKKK
Sequence of σ-1 receptors (Q99720 whole entry): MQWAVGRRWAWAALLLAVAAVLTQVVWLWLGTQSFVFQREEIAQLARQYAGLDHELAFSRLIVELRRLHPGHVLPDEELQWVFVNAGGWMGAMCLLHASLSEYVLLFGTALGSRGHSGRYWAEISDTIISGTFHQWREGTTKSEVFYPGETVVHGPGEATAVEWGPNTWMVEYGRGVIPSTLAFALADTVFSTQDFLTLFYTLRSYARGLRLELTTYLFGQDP

In the case of `CN(C)CC1CCOC1(c1ccccc1)c1ccccc1` (stereo not drawn) [AE37, tetrahydro-N,N-dimethyl-2,2-diphenyl-3-furanomethanamine], in data set [1], the “activity against Aβ25-35 induced neurotoxicity and oxidative stress” value is reported as “very performant”. Also, in data set [2], the “affinity for σ-2 receptors” value was “no affinity”.
As to `CN(C)CC1COC2(C1)C1CC3CC(C1)CC2C3` (stereo not drawn) [AdAE, (DIHYDRO-4-(DIMETHYLAMINOMETHYL)SPIRO{FURANE-2(3H), 2′TRICYCLO[3.3.1.13,7]DECANE}], in data set [3], the “action on σ-1 receptors” value is given as “weak agonists”.
For the compound `CNCC1CCOC1(c1ccccc1)c1ccccc1` (stereo not drawn) [AE37 Met, tetrahydro-N-methyl-2,2-diphenyl-3-furanomethanamine], in data set [4] (in mice), the “protection against anoxia caused by pentylenetetrazole (PTZ)” value was “exceptional protection”. Also, the “activity relative to AE37 for the properties mentioned” value in data set [4] (mainly neuroprotective action) is reported as “slightly more active than AE37”.
In general, Ki refers to the equilibrium dissociation constant of an inhibitor or competing ligand from its target. For the compound `CN(C)CC1COC(c2ccccc2)(c2ccccc2)C1` (stereo not drawn) [AE14, Tetrahydro-N,N,-dimethyl-5,5-diphenyl-3-furanomethanamine], the anti-immobility action entry in data set [5] is “very strong anti-immobility action”. For the same compound, the “concentration at which cytotoxic action on cancer cells is shown” value in data set [6] was “over 200 μM”. In addition, in data set [7], the “anti-amnesic action, active doses from” value is recorded as at least 0.03 mg/kg. Moreover, the “concentration at which agonistic action for σ-2 is shown” value in data set [8] is “over 10 μM”. The same compound came in with a Ki in data set [2] of over 10 µM. In addition, in data set [2] (σ-2 versus σ-1), the “affinity for σ-2 receptors, times lower than for σ-1” value is listed as “more than 100 times”.
With `CN(C)CC1COC(c2ccccc2)(C23CC4CC(CC(C4)C2)C3)C1` (stereo not drawn) [AdPhAE, 5-(TRICYCLO[3.3.1.13,7]DEC-1-YL)-TETRAHYDRO-N,N-DIMETHYL-5-PHENYL-3-FURANEMETHANAMINE-], the “action on σ-1 receptors” value in data set [3] is given as “weak agonists”.
